For assay [1], the target named is T1, GTPase KRas (Homo sapiens, UniProt P01116, G12C). The experiment in a line: Inhibition of BODIPY loaded KRAS G12C mutant (unknown origin) assessed as inhibition of GDP-GTP exchange rate in presence of SOS1/GppNHp incubated for 2 hr by BODIPY fluorescence assay.
For assay [2], the target named is T1, GTPase KRas. The experiment in a line: Inhibition of KRAS G12C mutant in human MIA PaCa-2 cells assessed as reduction in ERK phosphorylation incubated for 2 to 4 hrs by HTRF assay. Type of assay: cell-based.

For eleven molecules, IC50 results are on record in ChEMBL document CHEMBL5131529, “KRAS Inhibitors and Target Engagement Technology: From Undruggable to Druggable Targets in Cancer Therapeutics” (ACS Med Chem Lett, 2022).

T1 sequence (P01116 whole entry G12C): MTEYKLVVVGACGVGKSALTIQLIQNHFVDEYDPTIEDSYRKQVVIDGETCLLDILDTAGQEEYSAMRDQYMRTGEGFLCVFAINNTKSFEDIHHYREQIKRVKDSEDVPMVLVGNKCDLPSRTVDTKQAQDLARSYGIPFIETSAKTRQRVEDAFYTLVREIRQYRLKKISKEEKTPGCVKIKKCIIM

`C=Cc1ncc2n1CCN(c1nc(=O)n(C(C)C)c3nc(-c4c(O)cccc4F)c(F)cc13)C2`: the IC50 was 100 nM in assay [1] and 5000 nM in assay [2].

On to `C=Cc1ncc2n1CCN(c1nc(OCC3CCCN3C)nc3c(F)c(-c4c(O)cccc4F)c(Cl)cc13)C2` (stereo not drawn), for which the IC50 is 100 nM in assay [1] and 5000 nM in assay [2].

In the case of `C=Cc1ncc2n1CCN(c1nc(OCCN(C)C)nc3c(F)c(-c4cc(O)cc5ccccc45)c(Cl)cc13)C2`, the IC50 stood at 100 nM in assay [1] and 1000 nM in assay [2].

Take `C=Cc1ncc2n1CCN(c1nc(OCCN3CCOCC3)nc3c(F)c(-c4cc(O)cc5ccccc45)c(Cl)cc13)C2`: the IC50 was determined as 100 nM in assay [1] and 5000 nM in assay [2].

On to `C=Cc1ncc2n1CCN(c1nc(=O)n(-c3c(C)ccnc3C(C)C)c3nc(-c4c(O)cccc4F)c(F)cc13)C2`, for which the IC50 in assay [1] turned out to be 100 nM; in assay [2], 5000 nM; in assay [2] (mia paca-2), 5000 nM.

Take `C=Cc1ncc2n1CCN(c1nc(OCC3CCCN3C)nc3c(F)c(-c4c(C)ccc5[nH]ncc45)c(Cl)cc13)C2` (stereo not drawn): the results for the IC50 in assay [1] and in assay [2] were 100 nM and 5000 nM, respectively.

For the molecule `C=Cc1ncc2n1CCN(c1nc(OC3CCCN(C)C3)nc3c(F)c(-c4cc(O)cc5ccccc45)c(Cl)cc13)C2` (stereo not drawn), the IC50 came out at 100 nM in assay [1] and 5000 nM in assay [2].

As for `C=Cc1ncc2n1CCN(c1nc(OCC3CCCN3C)nc3c(F)c(-c4cc(O)cc5ccccc45)c(Cl)cc13)C2` (stereo not drawn), the figures for the IC50 in assay [1] and in assay [2] were at most 100 nM and 1000 nM, respectively.

For the molecule `C=Cc1ncc2n1CCN(c1nc(=O)n(CC3CC3)c3nc(-c4c(O)cccc4F)c(F)cc13)C2`, the results for the IC50 in assay [1] and in assay [2] were 100 nM and 5000 nM, respectively.

Regarding `C=Cc1ncc2n1CCN(c1nc(OC3CCN(C)CC3)nc3c(F)c(-c4cc(O)cc5ccccc45)c(Cl)cc13)C2`, the IC50 in assay [1] amounted to 100 nM; in assay [2] it was 5000 nM.

With `C=Cc1ncc2n1CCN(c1nc(OC[C@@H]3CCCN3C)nc3c(F)c(-c4cc(O)cc5ccccc45)c(Cl)cc13)C2`, the half-maximal inhibitory concentration (IC50) in assay [1] turned out to be 100 nM; in assay [2], 1000 nM.
